Earlier results as cited in patent US9440985B2, “Tricyclic derivatives of N,N′-substituted 3,7-diazabicyclo [3.3.1]nonanes and drugs based thereon” (priority 2011, dated 2016).

Experiments:
AMPA receptors [1] = conditions: adult rats; 0.3-3 mg/kg
AMPA receptors [2] = test system: AMPA receptors
AMPA receptors [3] = conditions: high concentrations

| NMDA-mediated signals (AMPA receptors [2]) | synaptic signal (AMPA receptors [2]; several hippocampus sites) | concentration at which the clinical effect is manifested (AMPA receptors [3]) [mM] | Structure (SMILES) | social memory (AMPA receptors [1]) |
| --- | --- | --- | --- | --- |
|  |  |  | O=C(c1ccc2c(c1)OCCO2)N1CCCCC1 [CX546] | improves social memory |
| no effect | enhances the synaptic signal | 0.1 | COc1ccc(C(=O)N2CCCC2=O)cc1 [aniracetam] |  |
